In patent US9174935B2, “Transition metal complexes of bis[thiohydrazide amide] compounds” (Synta Pharmaceuticals Corp., priority 2008, dated 2015):

How the values were obtained:
[1] = system: stage IV metastatic melanoma; conditions: in combination with paclitaxel, relative to patients treated with paclitaxel alone; cited from earlier work
M14 melanoma cells = experiment: Cytotoxicity in confluent M14 cells, cell viability by CCK8 assay; type: cell-based; conditions: Homo sapiens, M14, 48 h
Procedure: M14 melanoma cells were seeded at 50,000 cells per well of 96-well plate in 100 μl of Dulbecco's minimum essential medium (DMEM) supplemented with 10% fetal bovine serum. Cells were cultured at 37° C. under 5% CO2-95% air. After 16 hours of incubation, the test compound was added to the cell culture. The compound was first diluted in 100% dimethyl sulfoxide (DMSO) at 400-fold of final concentrations actually used in the assay. The DMSO solution was next diluted 20 fold with the culture medium, and then finally added to the assay wells at another 20-fold dilution. The assay medium included the test compound with concentrations as indicated with 0.25% DMSO. Cell viability was measured with a CCK8 assay (as described in the Technical Manual for Cell Counting Kit-8, Product #CK04-11, CK04-13 and CK04-20, Dojindo Molecular Technologies, Inc. MD; Tantular, I. S. et al. Tropical Medicine and International Health, 8(6), 569-574, 2003) in the last 15 min after a 48 h incubation with the test compound. Each bar of the figure expresses average percent inhibition against vehicle (0.25% DMSO) control (n=4). Error bars indicate standard deviation.

In the case of `CN(NC(=O)CC(=O)NN(C)C(=S)c1ccccc1)C(=S)c1ccccc1` [N-malonyl-bis(N′-methyl-N′-thiobenzoylhydrazide)], the time to progression [1] is given as “increase the time to progression”.

With `CN(NC(=O)CC(=O)NN(C)C(=S)c1ccccc1)C(=S)c1ccccc1` [A] the IC50 (M14 melanoma cells) was > 12.5 µM.
